As usually defined, the IC50 is the concentration needed to halve the response being measured.

Structures can show the parent of a compound that is named as a salt.

IC50 data for 24 molecules are collected here from patent US6951884B2, “Fluorobenzamides and uses thereof” (Hoffmann-La Roche Inc., priority 2002, dated 2005).

The assay addresses T1, human MAO-B (Homo sapiens, UniProt P27338).
T1 construct: expressed in transfected cells; host or cells: EBNA cells (transient transfection); membranes obtained by homogenisation and centrifugation at 45,000 x g
T1 sequence (P27338 1-520): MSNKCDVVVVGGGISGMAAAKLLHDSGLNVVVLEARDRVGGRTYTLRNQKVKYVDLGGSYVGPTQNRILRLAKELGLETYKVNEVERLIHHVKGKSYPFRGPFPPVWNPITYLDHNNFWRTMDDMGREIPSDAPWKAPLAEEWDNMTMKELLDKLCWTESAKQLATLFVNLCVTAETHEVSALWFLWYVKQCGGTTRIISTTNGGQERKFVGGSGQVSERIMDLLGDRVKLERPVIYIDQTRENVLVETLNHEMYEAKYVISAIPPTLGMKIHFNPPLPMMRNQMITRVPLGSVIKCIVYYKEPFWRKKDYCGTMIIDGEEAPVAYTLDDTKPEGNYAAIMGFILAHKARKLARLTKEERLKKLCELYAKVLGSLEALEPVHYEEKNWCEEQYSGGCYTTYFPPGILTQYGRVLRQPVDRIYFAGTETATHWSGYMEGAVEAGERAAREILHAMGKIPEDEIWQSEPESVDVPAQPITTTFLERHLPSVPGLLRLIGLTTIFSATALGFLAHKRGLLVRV
Put plainly: MAO-B enzymatic activity assay (spectrophotometric, tyramine/Amplex Red) on membranes of transfected EBNA cells. Type of assay: biochemical. The conditions noted are these: membranes of EBNA cells transfected with human MAO-B cDNA; substrate tyramine; 30 min preincubation at 37° C.; read-out: IC50, MAO-B inhibition. As to the method: The cDNA's encoding human MAO-A and MAO-B were transiently transfected into EBNA cells using the procedure described by E.-J. Schlaeger and K. Christensen (Transient Gene Expression in Mammalian Cells Grown in Serum-free Suspension Culture; Cytotechnology, 15: 1-13, 1998). After transfection, cells were homogeneised by means of a Polytron homogeneiser in 20 mM Tris HCl buffer, pH 8.0, containing 0.5 mM EGTA and 0.5 mM phenylmethanesulfonyl fluoride. Cell membranes were obtained by centrifugation at 45,000×g and, after two rinsing step with 20 mM Tris HCl buffer, pH 8.0, containing 0.5 mM EGTA, membranes were eventually re-suspended in the above buffer and aliquots stored at −80° C. until use.
MAO-A and MAO-B enzymatic activity was assayed in 96-well-plates using a spectrophotometric assay adapted from the method described by M. Zhou and N. Panchuk-Voloshina (A One-Step Fluorometric Method for the Continuous Measurement of Monoamine Oxidase Activity, Analytical Biochemistry, 253: 169-174, 1997). Briefly, membrane aliquots were incubated in 0.1 M potassium phosphate buffer, pH 7.4, for 30 min at 37° C. with or without various concentrations of the compounds. After this period, the enzymatic reaction was started by the addition of the MAO substrate tyramine together with 1 U/ml horse-radish peroxidase (Roche Biochemicals) and 80 μM N-acetyl-3,7,-dihydroxyphenoxazine (Amplex Red, Molecular Probes). The samples were further incubated for 30 min at 37° C. in a final volume of 200 μl and absorbance was then determined at a wavelength of 570 nm using a SpectraMax plate reader (Molecular Devices). Background (non-specific) absorbance was determined in the presence of 10 μM clorgyline for MAO-A or 10 μM L-deprenyl for MAO-B.
IC50 values were determined from inhibition curves obtained using nine inhibitor concentrations in duplicate, by fitting data to a four parameter logistic equation using a computer program.
As for `C[C@H](NC(=O)c1ccc(OCc2cccc(F)c2)cc1F)C(N)=O` [Example 1, (S)-N-(1-Carbamoyl-ethyl)-2-fluoro-4-(3-fluoro-benzyloxy)-benzamide], the IC50 is 5.9 nM.
The figure for `NC(=O)CNC(=O)c1ccc(OCc2cccc(F)c2)cc1F` [Example 2, 2-[4-(3-Fluorobenzyloxy)-2-fluoro-benzamido]acetamide] is 15.3 nM.
The value for `COC[C@H](C)NC(=O)c1ccc(OCc2cccc(F)c2)cc1F` [Example 4, (S)-2-Fluoro-4-(3-fluoro-benzyloxy)-N-(2-methoxy-1-methyl-ethyl)-benzamide] was 8 nM; that for `NC(=O)[C@H](CO)NC(=O)c1ccc(OCc2cccc(F)c2)cc1F` [Example 5, (S)-N-(1-Carbamoyl-2-hydroxy-ethyl)-2-fluoro-4-(3-fluoro-benzyloxy)-benzamide] was 11.6 nM; that for `COCCNC(=O)c1ccc(OCc2cccc(F)c2)cc1F` [Example 6, 2-Fluoro-4-(3-fluoro-benzyloxy)-N-(2-methoxy-ethyl)-benzamide] was 19.5 nM.
The value for `NC(=O)CNC(=O)c1ccc(OCc2ccc(F)cc2)cc1F` [Example 10, 2-[4-(4-Fluorobenzyloxy)-2-fluoro-benzamido]acetamide] was 11.6 nM; that for `C[C@H](NC(=O)c1ccc(OCc2ccc(F)cc2)cc1F)C(N)=O` [Example 11, (S)-N-(1-Carbamoyl-ethyl)-2-fluoro-4-(4-fluoro-benzyloxy)-benzamide] was 7 nM; that for `C[C@H](NC(=O)c1ccc(OCc2ccc(C(F)(F)F)cc2)cc1F)C(N)=O` [Example 12, (S)-N-(1-Carbamoyl-ethyl)-2-fluoro-4-(4-trifluoromethyl-benzyloxy)-benzamide] was 25.7 nM.
As for `C[C@H](NC(=O)c1ccc(OCc2ccc(F)cc2)c(F)c1)C(N)=O` [Example 18, (S)-N-(1-Carbamoyl-ethyl)-3-fluoro-4-(4-fluoro-benzyloxy)-benzamide], the IC50 was 7 nM.
The figure for `NC(=O)CNC(=O)c1ccc(OCc2ccc(F)cc2)c(F)c1` [Example 19, 2-[4-(4-Fluorobenzyloxy)-3-fluoro-benzamido]acetamide] is 3.1 nM; for `NC(=O)[C@H](CO)NC(=O)c1ccc(OCc2ccc(F)cc2)c(F)c1` [Example 20, (S)-N-(1-Carbamoyl-2-hydroxy-ethyl)-3-fluoro-4-(4-fluoro-benzyloxy)-benzamide] it is 11 nM; for `COCCNC(=O)c1ccc(OCc2ccc(F)cc2)c(F)c1` [Example 22, 3-Fluoro-4-(4-fluoro-benzyloxy)-N-(2-methoxy-ethyl)-benzamide] it is 18 nM.
The value for `NC(=O)CNC(=O)c1ccc(OCc2cccc(F)c2)c(F)c1` [Example 25, 2-[4-(3-Fluorobenzyloxy)-3-fluoro-benzamido]acetamide] was 5 nM.
Turning to `C[C@H](NC(=O)c1ccc(OCc2cccc(F)c2)c(F)c1)C(N)=O` [Example 26, (S)-N-(1-Carbamoyl-ethyl)-3-fluoro-4-(3-fluoro-benzyloxy)-benzamide], the half-maximal inhibitory concentration (IC50) was 19 nM.
The value for `C[C@@H](NC(=O)c1ccc(OCc2cccc(F)c2)c(F)c1)C(N)=O` [Example 27, (R)-N-(1-Carbamoyl-ethyl)-3-fluoro-4-(3-fluoro-benzyloxy)-benzamide] was 23 nM; that for `NC(=O)[C@H](CO)NC(=O)c1ccc(OCc2cccc(F)c2)c(F)c1` [Example 28, (S)-N-(1-Carbamoyl-2-hydroxy-ethyl)-3-fluoro-4-(3-fluoro-benzyloxy)-benzamide] was 12 nM; that for `NC(=O)CNC(=O)c1ccc(OCc2ccc(C(F)(F)F)cc2)c(F)c1` [Example 31, 2-[4-(4-Trifluoromethylbenzyloxy)-3-fluoro-benzamido]acetamide] was 16 nM.
The value for `NC(=O)[C@H](CO)NC(=O)c1ccc(OCc2ccc(C(F)(F)F)cc2)c(F)c1` [Example 34, (S)-N-(1-Carbamoyl-2-hydroxy-ethyl)-3-fluoro-4-(4-trifluoromethyl-benzyloxy)-benzamide] was 25 nM; that for `NCCNC(=O)c1ccc(OCc2ccc(C(F)(F)F)cc2)c(F)c1` [Example 36, N-(2-Amino-ethyl)-3-fluoro-4-(4-trifluoromethyl-benzyloxy)-benzamide 1:1 hydrochloride] was 19 nM; that for `C[C@H](NC(=O)c1c(F)cc(OCc2ccc(F)cc2)cc1F)C(N)=O` [Example 37, (S)-N-(1-Carbamoyl-ethyl)-2,6-difluoro-4-(4-fluoro-benzyloxy)-benzamide] was 22 nM.
The figure for `NC(=O)CNC(=O)c1c(F)cc(OCc2ccc(F)cc2)cc1F` [Example 39, N-Carbamoylmethyl-2,6-difluoro-4-(4-fluoro-benzyloxy)-benzamide] is 27 nM; for `COCCNC(=O)c1c(F)cc(OCc2ccc(F)cc2)cc1F` [Example 41, 2,6-Difluoro-4-(4-fluoro-benzyloxy)-N-(2-methoxy-ethyl)-benzamide] it is 13 nM; for `C[C@@H](CO)NC(=O)c1c(F)cc(OCc2ccc(F)cc2)cc1F` [Example 45, (S)-2,6-Difluoro-4-(4-fluoro-benzyloxy)-N-(2-hydroxy-1-methyl-ethyl)-benzamide] it is 23 nM.
As to `COCCNC(=O)c1c(F)cc(OCc2cccc(F)c2)cc1F` [Example 51, 2,6-Difluoro-4-(3-fluoro-benzyloxy)-N-(2-methoxy-ethyl)-benzamide], the IC50 amounted to 24 nM.
